Drawing on patent US7585859B2, “PDE4B inhibitors and uses therefor” (Plexxikon, Inc., priority 2004, dated 2009), this text covers IC50 and inhibition in vivo for eleven compounds.

Where two headings read alike, the source gives them in different places.

Experiment [1] concerns the target T1, full-length human PDE4B2 isozyme (Homo sapiens, UniProt Q07343).
T1 construct: The full-length human PDE4B2 isozyme; His6 (N); TEV cleavage site (N); made in house; host or cells: baculovirus infected insect cells (unpurified lysate)
The experiment is described as follows: PDE4 IC50 determination by Scintillation Proximity Assay, PDE4B2. The format is biochemical. A digest of the protocol: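 Unpurified His6-TEV-tagged full-length human PDE4B2 from baculovirus-infected insect cell lysate (2.5 μl of 50% glycerol stock/ml) hydrolysed [3H]cAMP in 50 mM Tris pH 7.5, 8.3 mM MgCl, 1.7 mM EGTA, 0.01% BSA for 30 min at 30°. Stopped with SPA beads in 18 mM ZnSO4; [3H]AMP scintillation counted, IC50 by non-linear regression.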
(In general: Scintillation proximity formats need no separation of bound from free tracer.)

Experiment [2] has as its target T2, full-length human PDE4D5 isozyme (Homo sapiens, UniProt Q08499).
T2 construct: The full-length human PDE4D5 isozyme; His6 (N); TEV cleavage site (N); made in house; host or cells: baculovirus infected insect cells (unpurified lysate)
The experiment is described as follows: PDE4 IC50 determination by Scintillation Proximity Assay, PDE4D5. The format is biochemical. A digest of the protocol: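 Unpurified His6-tagged full-length human PDE4D5 from baculovirus-infected insect cell lysate, 0.083 μl glycerol stock/ml, hydrolysed [3H]cAMP in Tris pH 7.5/MgCl/EGTA buffer, 30 min at 30°. ZnSO4/SPA beads stop; [3H]AMP counted. Controls: DMSO and roflumilast; 11-point duplicate curves, nonlinear-regression IC50.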

The target of experiment [3] is T3, PDE4B: The catalytic domain of human PDE4B from S152-S528 (Homo sapiens, UniProt Q07343).
T3 construct: His6 (N); thrombin cleavage site (N); made in house; host or cells: E. coli
T3 sequence (Q07343 with tags, fused parts or gaps): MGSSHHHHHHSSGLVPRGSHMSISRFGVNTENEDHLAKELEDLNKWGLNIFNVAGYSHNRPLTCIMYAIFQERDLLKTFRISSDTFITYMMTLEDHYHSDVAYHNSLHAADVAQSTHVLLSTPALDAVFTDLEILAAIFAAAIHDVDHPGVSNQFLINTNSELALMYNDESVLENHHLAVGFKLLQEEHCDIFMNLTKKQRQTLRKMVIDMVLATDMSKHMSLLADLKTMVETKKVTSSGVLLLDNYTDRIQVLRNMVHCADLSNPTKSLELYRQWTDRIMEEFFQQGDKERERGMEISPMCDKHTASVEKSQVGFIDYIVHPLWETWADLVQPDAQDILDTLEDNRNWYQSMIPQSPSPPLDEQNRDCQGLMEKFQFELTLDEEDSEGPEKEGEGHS
In words: PDE4 IC50 determination by Scintillation Proximity Assay, PDE4B. Format: biochemical. The essentials:
(§1)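 Radiometric SPA: PDE4B (80 ng/ml) or PDE4D (4 ng/ml) hydrolysed [^3H]cAMP over 30 min at 30°, and the bead-bound [^3H]AMP was scintillation-counted.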

Experiment [4] has as its system TNF alpha production in LPS-stimulated human blood (Buffy coat). In words: TNF alpha production by stimulation with LPS in whole blood cultures. The format is cell-based. As to the method:
Compounds were assayed to generate IC50 numbers as described in Example 54, using the following assay protocol (see Tables 3B and 4B for compounds and results).
Protocol • 1) Obtained 20 mM DMSO aliquots of desired concentrations of compounds (see Tables 3B and 4B for compounds tested and results). Placed 2 μl/well compound in DMSO in the top row of the dilution plate. Added 98 μl of RPMI 1640 media w/2.5% heat inactivated FBS.
2) Made the same media with 2% DMSO in it. Added 60 μl/well to well to make compound titration. Took 30 μl of top row and did a 1:3 dilution down the plate. In column 11 added 4 wells of 50 μM roflumilast and piclamilast. In column 12 added 2% DMSO media.
3) Transfered 20 μl/well into assay plates in duplicate.
4) Obtained human Buffy coat.
5) Diluted blood with 7 volumes of RPMI 1640 media with 1% P/S and 2.5% heat inactivated FBS (a 1:8 dilution)
6) Added160 μl/well of diluted blood to the assay plates.
7) Incubated for 1 hour at 37 degrees 5% CO2
8) Diluted LPS (which was already diluted to 1 mg/ml in PBS, 20 μl aliquots frozen −20 C.) to 10× desired final concentration to make a […] dilution (final concentration should be 100 ng/ml).
9) After 1 hour incubation added 20 μl/well of LPS to plates. A non-LPS treated background was also prepared. Samples were put on the shaker for a one minute 900 rpm.
10) Incubated for 4 hours in incubator.
11) After incubation, put on the shaker for a one minute 900 rpm and spun plate at 100 g for 10 minutes, Decel 5.
12) Carefully pipetted the top 75 μl supernatant into a new plate. Samples were frozen as needed.
Biosource hu-TNF ALPHA ELISA
• REAGENTS USED • DPBS 10×: VWR45000-428 (dilute 1:10 with Millipore Water) • TWEEN 20: FISHER BP337-500 • CAPTURE AND DETECTION ANTIBODIES: R&D DY510E • STREP-HRP: Biosource part SNN4004X • COLOR REAGENTS: R&D DY994 • STOP SOLUTION: from chemistry, or R&D DY999 • 1) Thawed samples to RT as needed. • 2) Added 50 μl Incubation buffer/well. • 3) Added 50 μl blood samples +50 μl Diluent buffer • 4) Incubated 2 hours at room temp. • 5) Washed the plate 4× with 300 μl/well wash buffer with microfill. Wash buffer was DPBS with 0.05% Tween pH 7.2-7.4 • 6) Added 100 μl biotinylated anti-TNFalpha • 7) Incubateed 1 hours at room temp. • 8) Washed the plate 4× with 300 μl/well wash buffer with microfill. Wash buffer was DPBS with 0.05% Tween pH 7.2-7.4 • 9) Added^100 μl Streptavidin-HRP working solution • 10) Incubated for 30 minutes at room temp. • 11) Washed the plate 4× with 300 μl/well wash buffer with microfill. Wash buffer was DPBS with 0.05% Tween pH 7.2-7.4 • 12) Added 100 μl Chromagen • 13) Incubated in the dark for 30 minutes until the blue color developed satisfactorily. • 14) Added 100 μl/well stop solution (2 N H2SO4). • 15) Read plate on WallacVictor at 450 nm for 0.1 sec/well

Experiment [5] addresses T4, PDE4D (Homo sapiens, UniProt Q08499).
T4 construct: PDE4D: The catalytic domain of human PDE4B from S3 16-V692; His6 (N); thrombin cleavage site (N); made in house; host or cells: E. coli
The experiment is described as follows: PDE4 IC50 determination by Scintillation Proximity Assay, PDE4D. The format is biochemical. The essentials:
as §1

The subject of experiment [6] is TNFα levels in serum of LPS-challenged rats. In words: Rat inhibition studies: serum TNFα after iv LPS challenge. The format is in vivo. The note with it: rat, read-out: % inhibition r TNFα. As to the method:
All studies were done with male rats CD (SD) IGS BR (Crl) (Charles River, France), which were grouped in to 5 animal groups.
At the end of the acclimatization period, the non-fasted rats were weighed, individually identified on the tail with a permanent marker and administered by oral (po) or interperitoneal (ip) route with either vehicle, reference or test compound in a volume of 10 mL/kg adapted to the body weight. The animals were gathered in groups of 5 animals in a polystyrene labeled cage with sawdust covered floors. 2-hours after vehicle, reference or test substance administration, rats received an intravenous (iv) injection of 0.1 mg/kg LPS in a volume of 1 mL/kg of body weight. 2 h after LPS challenge (or as indicated in Tables 3B and 4B), blood samples were collected into tubes without anticoagulant by retro-orbital puncture under gas (isoflurane) anesthesia. Samples were allowed to clot at room temperature for 5 to 10 min then put on ice until there were prepared by centrifugation (6000×g for 3 min at 4° C.) and stored at −20° C. until use. TNFα levels were measured in serum samples in duplicate by ELISA technique according to the manufacturer's procedure (Rat TNFα kit Quantikine M (RTA00, R&D System, France)). Data are reported as percent decrease in observed TNFα levels versus TNFa levels observed for vehicle dosed animal groups.

[7] abbreviates: Table 1B, Formula I compounds, read-out: IC50 PDE4B2.
The mark [8] stands for this setting: Table 1B, Formula I compounds, read-out: IC50 PDE4D5.
[9] abbreviates: Table 1B, Formula I compounds, read-out: IC50 PDE4B.
The mark [10] stands for this setting: Homo sapiens, Table 1B, Formula I compounds, read-out: IC50 h TNFα.
Setting [11] is: Table 1B, Formula I compounds, read-out: IC50 PDE4D.
[12] abbreviates: second part of Table 2B (2-23 to 2-103), column 4, column is PDE4B2 in first part, read-out: IC 50 vs. indicated assay h TNFα.
[13] abbreviates: second part of Table 2B (2-23 to 2-103), column 3, column is PDE4B in first part, read-out: IC 50 vs. indicated assay h TNFα.
The mark [14] stands for this setting: human whole blood, LPS 100 ng/ml, read-out: IC 50 vs. indicated assay h TNFα.
Where [15] appears, read: second part of Table 2B (2-23 to 2-103), column 5, column is PDE4D in first part, read-out: IC 50 vs. indicated assay h TNFα.

T4 sequence (Q08499 380-756): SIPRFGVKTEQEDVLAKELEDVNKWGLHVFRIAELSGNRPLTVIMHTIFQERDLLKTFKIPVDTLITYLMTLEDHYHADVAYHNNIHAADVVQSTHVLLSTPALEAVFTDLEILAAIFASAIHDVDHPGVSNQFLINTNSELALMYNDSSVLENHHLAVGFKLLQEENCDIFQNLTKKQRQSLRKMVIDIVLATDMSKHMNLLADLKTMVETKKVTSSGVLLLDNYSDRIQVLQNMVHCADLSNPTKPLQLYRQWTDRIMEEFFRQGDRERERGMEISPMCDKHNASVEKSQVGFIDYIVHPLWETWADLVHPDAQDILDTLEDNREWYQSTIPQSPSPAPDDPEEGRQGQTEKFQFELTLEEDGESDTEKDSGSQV
T2 sequence (Q08499 1-745 isoform Q08499-6): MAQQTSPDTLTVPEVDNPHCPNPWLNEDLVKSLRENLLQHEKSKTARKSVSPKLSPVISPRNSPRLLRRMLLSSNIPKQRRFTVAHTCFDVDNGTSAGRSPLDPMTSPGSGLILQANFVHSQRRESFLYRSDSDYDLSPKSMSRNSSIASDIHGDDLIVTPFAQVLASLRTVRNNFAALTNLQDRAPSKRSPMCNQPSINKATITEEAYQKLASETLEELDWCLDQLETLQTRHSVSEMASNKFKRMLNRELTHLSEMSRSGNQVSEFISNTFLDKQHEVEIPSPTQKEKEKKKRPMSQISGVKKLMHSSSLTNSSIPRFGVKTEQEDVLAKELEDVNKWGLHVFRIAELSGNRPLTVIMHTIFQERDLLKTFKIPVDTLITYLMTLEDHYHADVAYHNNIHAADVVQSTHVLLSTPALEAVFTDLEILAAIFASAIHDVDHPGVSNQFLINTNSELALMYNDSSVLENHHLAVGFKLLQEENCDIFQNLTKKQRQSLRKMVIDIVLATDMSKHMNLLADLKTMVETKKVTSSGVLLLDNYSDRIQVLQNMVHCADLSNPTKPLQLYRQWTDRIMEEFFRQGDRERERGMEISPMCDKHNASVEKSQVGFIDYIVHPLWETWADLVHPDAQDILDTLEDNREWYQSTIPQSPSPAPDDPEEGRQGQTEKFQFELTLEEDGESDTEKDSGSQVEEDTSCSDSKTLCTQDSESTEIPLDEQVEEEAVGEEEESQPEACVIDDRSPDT
T1 sequence (Q07343 1-564 isoform Q07343-2): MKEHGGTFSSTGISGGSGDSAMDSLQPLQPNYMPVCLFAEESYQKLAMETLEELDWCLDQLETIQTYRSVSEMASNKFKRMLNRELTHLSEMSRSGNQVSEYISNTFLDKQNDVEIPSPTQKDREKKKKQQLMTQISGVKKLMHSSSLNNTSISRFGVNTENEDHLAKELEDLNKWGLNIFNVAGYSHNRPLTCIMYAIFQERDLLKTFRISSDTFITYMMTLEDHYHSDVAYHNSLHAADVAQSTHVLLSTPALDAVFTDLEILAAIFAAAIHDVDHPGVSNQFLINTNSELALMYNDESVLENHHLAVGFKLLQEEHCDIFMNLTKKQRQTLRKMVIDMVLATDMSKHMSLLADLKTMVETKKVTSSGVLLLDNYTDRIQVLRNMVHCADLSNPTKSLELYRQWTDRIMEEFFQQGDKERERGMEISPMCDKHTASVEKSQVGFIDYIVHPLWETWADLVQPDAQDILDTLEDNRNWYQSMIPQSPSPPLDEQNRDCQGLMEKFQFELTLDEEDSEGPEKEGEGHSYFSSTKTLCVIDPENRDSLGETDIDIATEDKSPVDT

Turning to `CCc1c(NC2CCCC2)sc(C(=O)c2cc(-c3ccccc3)no2)c1N` [Compound 1-241, (3-Amino-5-cyclopentylamino-4-ethyl-thiophen-2-yl)-(3-phenyl-isoxazole-5-yl)-methanone], the IC50 in experiment [1] (setting [7]) is less than 10 µM; in experiment [2] (setting [8]) it was more than 10 µM; in experiment [3] (setting [9]), less than 10 µM; in experiment [4] (setting [10]), more than 10 µM.
For the compound `Cc1c(NC2CCCC2)sc(C(=O)c2cc(-c3ccccc3)no2)c1N` [Compound 1-240, (3-Amino-5-cyclopentylamino-4-methyl-thiophen-2-yl)-(3-phenyl-isoxazol-5-yl)-methanone], the IC50 in experiment [1] (setting [7]), in experiment [2] (setting [8]), in experiment [3] (setting [9]) and in experiment [4] (setting [10]) was less than 10 µM in each case.
Turning to `CCC(C)Nc1sc(C(=O)c2cc(-c3ccc(Cl)c(Cl)c3)no2)c(N)c1C(N)=O` (stereo not drawn) [Compound 1-249, 4-Amino-2-sec butylamino-5-[3-(3,4-dichloro-phenyl)-isoxazole-5-carbonyl]-thiophene-3-carboxylic acid amide], the IC50 in experiment [2] (setting [8]) is more than 10 µM; in experiment [3] (setting [9]), less than 10 µM; in experiment [4] (setting [10]) it was more than 10 µM; in experiment [5] (setting [11]), less than 10 µM.
In the case of `Nc1nc(Nc2ccc(C(=O)O)cc2)sc1C(=O)c1ccccc1` [Compound 2-35, 4-(4-Amino-5-benzoyl-thiazol-2-ylamino)-benzoic acid], the IC50 in experiment [1] (setting [12]) was less than 10 µM; in experiment [3] (setting [13]) it was less than 10 µM; in experiment [4] (setting [14]), more than 10 µM; in experiment [5] (setting [15]), less than 10 µM.
Regarding `COc1ccccc1Nc1sc(C(=O)c2cc(-c3ccccc3)no2)c(N)c1C#N` [Compound 1-242], the IC50 in experiment [1] (setting [7]), in experiment [2] (setting [8]), in experiment [3] (setting [9]) and in experiment [4] (setting [10]) was less than 10 µM each time.
As to `Nc1nc(NC2CCCC2)sc1C(=O)c1cc(-c2ccccc2)cs1` [Compound 2-19, (4-Amino-2-cyclopentylamino-thiazol-5-yl)-(4-phenyl-thiophen-2yl)-methanone], the IC50 in experiment [1] (first part of Table 2B (2-1 to 2-22), read-out: IC 50 vs. indicated assay PDE4B2) is less than 10 µM; in experiment [2] (first part of Table 2B (2-1 to 2-22), read-out: IC 50 vs. indicated assay PDE4D5) it was less than 10 µM; in experiment [3] (first part of Table 2B (2-1 to 2-22), read-out: IC 50 vs. indicated assay PDE4B) it was less than 10 µM; in experiment [4] (setting [14]), less than 10 µM.
Turning to `Nc1nc(NC2CCCC2)sc1C(=O)c1ccc(Oc2ccccc2)cc1` [Compound 2-76, (4-Amino-2-cyclopentylamino-thiazol-5-yl)-(4-phenoxy-phenyl)-methanone], the IC50 is less than 10 µM in experiment [1] (setting [12]), less than 10 µM in experiment [3] (setting [13]), more than 10 µM in experiment [4] (setting [14]) and less than 10 µM in experiment [5] (setting [15]).
As for `NC(=O)c1c(N)sc(C(=O)c2cc(-c3ccccc3)no2)c1N` [Compound 1-255, 2,4-Diamino-5-(3-phenyl-isoxazole-5-carbonyl)-thiophene-3-carboxylic acid amide], the IC50 in experiment [1] (setting [7]), in experiment [2] (setting [8]) and in experiment [4] (setting [10]) was more than 10 µM each time.
With `N#Cc1c(NC2CCCC2)sc(C(=O)c2cc(-c3ccc(F)cc3)no2)c1N` [Compound 1-221, 4-Amino-2-cyclopentylamino-5-[3-(4-fluoro-phenyl)-isoxazole-5-carbonyl]-thiophene-3-carbonitrile], the IC50 was less than 10 µM in experiment [1] (setting [7]), more than 10 µM in experiment [2] (setting [8]), less than 10 µM in experiment [3] (setting [9]) and more than 10 µM in experiment [5] (setting [11]). The inhibition in vivo at 50 mg in experiment [6] (2 h, po, 2 hr challenge delay) is less than 20%.
`N#Cc1c(NC2CCCC2)sc(C(=O)c2cc(-c3ccccc3)no2)c1N` [Compound 1-143, 4-Amino-2-cyclopentylamino-5-(3-phenyl-isoxazole-5-carbonyl)-thiophene-3-carbonitrile]: the IC50 in experiment [1] (setting [7]), in experiment [2] (setting [8]), in experiment [3] (setting [9]) and in experiment [5] (setting [11]) was less than 10 µM in each case. Besides, in experiment [6] (2 h, ip, 2 hr challenge delay), the inhibition in vivo at 50 mg is more than 20%. Besides, in experiment [6] (2 h, 80 mg, po, 2 hr challenge delay), the inhibition in vivo at 80 mg was less than 20%. The inhibition in vivo at 100 mg/kg in experiment [6] (ip, 2 h, 100 mg/kg, ip, 2 hr challenge delay) is more than 20%.
Take `COc1ccc(C(=O)c2sc(Nc3ccc(Cl)cc3)c(C#N)c2N)cc1` [Compound 1-36, 4-Amino-2-(4-chloro-phenylamino)-5-(4-methoxy-benzoyl)-thiophene-3-carbonitrile]: the IC50 in experiment [1] (setting [7]), in experiment [2] (setting [8]), in experiment [3] (setting [9]) and in experiment [5] (setting [11]) was less than 10 µM in each case. For the same compound, the inhibition in vivo at 100 mg/kg in experiment [6] (po, 1 h, 100 mg/kg po, 1 hr challenge delay) is less than 20%.
